The source of these data is US12600725B2 (Memorial Sloan-Kettering Cancer Center, priority 2013, dated 2026).

Assay [1] has as its system Grp94. Conditions: Hsp90 vs Grp94.
Assay [2] deals with T1, Trap-1 (Homo sapiens, UniProt Q12931).
T1 sequence (Q12931 60-704): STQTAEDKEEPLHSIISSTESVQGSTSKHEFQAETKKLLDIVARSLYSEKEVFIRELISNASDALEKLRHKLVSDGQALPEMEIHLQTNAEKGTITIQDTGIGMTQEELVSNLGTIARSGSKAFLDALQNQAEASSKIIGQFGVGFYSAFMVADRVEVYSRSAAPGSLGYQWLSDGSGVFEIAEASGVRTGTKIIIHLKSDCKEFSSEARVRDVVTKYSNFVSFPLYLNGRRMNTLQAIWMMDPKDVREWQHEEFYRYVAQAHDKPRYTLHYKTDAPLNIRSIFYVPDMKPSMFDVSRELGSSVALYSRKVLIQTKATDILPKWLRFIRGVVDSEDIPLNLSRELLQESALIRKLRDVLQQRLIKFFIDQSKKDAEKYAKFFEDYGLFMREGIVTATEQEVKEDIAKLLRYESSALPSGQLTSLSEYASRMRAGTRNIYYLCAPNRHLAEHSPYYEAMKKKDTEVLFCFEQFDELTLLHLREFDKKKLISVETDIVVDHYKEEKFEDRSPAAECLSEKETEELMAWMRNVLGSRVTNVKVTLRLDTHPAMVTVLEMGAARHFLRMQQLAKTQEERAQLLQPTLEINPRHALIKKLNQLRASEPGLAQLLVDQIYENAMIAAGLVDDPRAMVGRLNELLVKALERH
Conditions: for loss of affinity for Trap-1: Hsp90 vs Trap-1.

In assay [3] the target is T2, Grp94 (Canis lupus familiaris, UniProt P41148). Conditions: read-out: Grp94 IC50; 43a as FP probe.
Assay [4] concerns the target T2, Grp94. The conditions noted are these: read-out: Grp94; FP competition, 6 nM Cy3B-GM, 10 nM protein, 4° C. for 24 h.
Assay [5] has as its target Hsp90β (Homo sapiens, UniProt P08238).
In assay [6] the target is T1, Trap-1. The conditions noted are these: read-out: TRAP-1.
Assay [7] concerns the target T3, Hsp90α (Homo sapiens, UniProt P07900). In words: biochemical. The conditions noted are these: FP competition, 6 nM Cy3B-GM, 10 nM protein, 4° C. for 24 h.
The target in assay [8] is T3, Hsp90α. Conditions: read-out: Hsp90α; FP competition, 6 nM Cy3B-GM, 10 nM protein, 4° C. for 24 h.
The test system of assay [9] is HER2 at the plasma membrane of SKBr3 cells. Briefly: Immunofluorescence of HER2 architecture at the plasma membrane. The class given is cell-based. Here is the method: We next investigated the biological significance of the unique association of HER^2 with Grp94 at the plasma membrane of SKBr3 cells. Because the Grp94 inhibitors described here target the ATP-binding pocket of Grp94, they affect Grp94 chaperone activity. Therefore we hypothesized that Grp94 may act on HER^2 at the plasma membrane to stabilize the protein and to regulate its function.
Immunofluorescence. Cells were seeded and grown onto culture slides (BD Falcon) for 24 hrs. After washing with cold PBS, cells were fixed by treating at 4° C. for 20 min with 4% paraformaldehyde in PBS, permeabilized with 0.1% Triton X-100 in PBS containing 10% FBS for 10 min, and blocked with 2% BSA for 1 hr. After washing for four times with PBS, primary antibodies were added onto the chambers and cell were incubated overnight at 4° C., washed again with PBS followed by incubation with the secondary antibody for 1 hr at room temperature. Cell were washed and then mounted and observed under microscope (Leica Upright Confocal SP5). The primary antibodies used in the assay are against: HER^2 (Zymed, 28004), Grp94 (Stressgen, SPA-850), Hsp70 (Stressgen, SPA-810), LAMP1-FITC (Abcam, ab25406), EEA1 (Abcam, ab70521), 58K Golgi-FITC (Abcam, ab27043) and Calnexin (BD, 610523).

Several values for one entry are separate records, joined by “and”; a condition that tells them apart may be missing. Equal entries are not always repeated. Entries after “also recorded” stand apart in the source; their conditions may differ. Where two headings read alike, the source gives them in different places.

Chain of Hsp90β (P08238 whole entry): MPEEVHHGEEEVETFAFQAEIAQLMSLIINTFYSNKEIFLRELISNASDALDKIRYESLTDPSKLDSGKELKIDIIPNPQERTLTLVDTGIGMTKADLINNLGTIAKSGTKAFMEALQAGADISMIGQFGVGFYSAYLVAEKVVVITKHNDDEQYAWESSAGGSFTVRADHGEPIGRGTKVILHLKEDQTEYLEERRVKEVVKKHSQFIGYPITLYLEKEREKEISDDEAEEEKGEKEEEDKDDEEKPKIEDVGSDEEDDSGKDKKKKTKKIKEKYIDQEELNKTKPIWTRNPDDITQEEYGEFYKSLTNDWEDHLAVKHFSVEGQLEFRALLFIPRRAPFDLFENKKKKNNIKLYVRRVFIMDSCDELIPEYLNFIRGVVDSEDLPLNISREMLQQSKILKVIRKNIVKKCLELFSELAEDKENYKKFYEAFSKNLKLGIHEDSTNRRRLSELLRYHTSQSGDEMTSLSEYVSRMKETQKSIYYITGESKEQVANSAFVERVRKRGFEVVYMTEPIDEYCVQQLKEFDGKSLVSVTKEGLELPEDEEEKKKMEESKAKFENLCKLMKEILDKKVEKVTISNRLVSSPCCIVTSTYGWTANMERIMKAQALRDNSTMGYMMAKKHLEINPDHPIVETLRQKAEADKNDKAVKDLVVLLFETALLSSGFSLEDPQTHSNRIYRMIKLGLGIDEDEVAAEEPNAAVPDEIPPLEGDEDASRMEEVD
T2 sequence (P41148 with tags, fused parts or gaps DELINS287-327GGGG): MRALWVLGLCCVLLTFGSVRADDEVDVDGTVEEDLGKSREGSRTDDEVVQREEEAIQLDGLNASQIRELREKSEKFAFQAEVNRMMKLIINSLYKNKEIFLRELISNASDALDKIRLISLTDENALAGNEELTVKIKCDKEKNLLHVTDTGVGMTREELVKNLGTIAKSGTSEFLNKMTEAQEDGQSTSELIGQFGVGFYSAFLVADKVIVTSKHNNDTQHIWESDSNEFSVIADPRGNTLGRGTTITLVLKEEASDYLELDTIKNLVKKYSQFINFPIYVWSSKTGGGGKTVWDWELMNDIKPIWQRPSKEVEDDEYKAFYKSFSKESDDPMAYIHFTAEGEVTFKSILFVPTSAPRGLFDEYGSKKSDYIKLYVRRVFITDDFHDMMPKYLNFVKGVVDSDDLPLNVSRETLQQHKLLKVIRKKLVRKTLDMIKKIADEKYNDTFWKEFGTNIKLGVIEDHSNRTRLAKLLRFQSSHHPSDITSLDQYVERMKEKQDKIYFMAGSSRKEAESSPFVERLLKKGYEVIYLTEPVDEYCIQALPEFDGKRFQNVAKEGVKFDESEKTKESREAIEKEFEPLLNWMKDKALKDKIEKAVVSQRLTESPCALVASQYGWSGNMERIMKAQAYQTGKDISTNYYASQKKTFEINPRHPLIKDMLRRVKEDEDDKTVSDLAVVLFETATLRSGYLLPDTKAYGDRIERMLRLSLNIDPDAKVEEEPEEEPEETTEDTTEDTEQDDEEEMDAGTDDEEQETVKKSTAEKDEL

With `COc1c(C)cnc(Cn2cnc3c(Cl)nc(N)nc32)c1C` [BIIB021], the “loss of affinity for Grp94” value in assay [1] is “approximately 10 fold”. Moreover, the “decrease in binding efficacy for Trap-1” value in assay [2] (relative to Hsp90) was determined as 5 fold.

With `CN(C)c1cc2c(cc1Sc1nc3c(N)nccc3n1CCNCC(C)(C)C)OCO2` [CUDC-305/Debio092], the “loss of affinity for Grp94” value in [1] was “approximately 10 fold”. In addition, the “loss of affinity for Trap-1” value in assay [2] is reported as around 2 log.

Regarding `C=CCNC1=C2C[C@@H](C)C[C@H](OC)[C@H](O)[C@@H](C)/C=C(\C)[C@H](OC(N)=O)[C@@H](OC)/C=C\C=C(/C)C(=O)NC(=CC1=O)C2=O` [Compound 17-AAG], the IC50 in assay [3] is 0.031 µM; in assay [2] (read-out: Trap-1 IC50, 43a as FP probe), 1.5 µM; in [2] (read-out: binding affinity (FP competition), probe 115a) it was 1.5 µM. Besides, in assay [2], the “loss of affinity for Trap-1” value is reported as around 2 log.

`C#CCCCn1c(Sc2cc(C)cc(C)c2)nc2c(N)ncnc21` [PU-H4]: the IC50 was 11.5 ± 0.92 µM in [4], above 300 µM in assay [5], 158 ± 9.7 µM in assay [6] and above 300 µM in [7].

Regarding `C#CCCCn1c(Sc2cc(C)ccc2C)nc2c(N)ncnc21` [PU-H27], the IC50 in [5] is above 300 µM; in assay [6] it was 204 ± 11 µM; in assay [7], above 300 µM.

For `C#CCCCn1c(Sc2cc(Cl)ccc2Cl)nc2c(N)ncnc21` [PU-H42], the IC50 was 0.53 ± 0.1 µM in [4], above 100 µM in [5], 5.1 ± 4.2 µM in [6] and 60.4 ± 1.6 µM in assay [8].

`C#CCCCn1c(Sc2cc(Cl)c(Cl)cc2Cl)nc2c(N)ncnc21` [PU-H51]: the IC50 is 0.17 ± 0.11 µM in [4], above 200 µM in assay [5], 78.4 ± 8.9 µM in [6] and above 200 µM in assay [7].

Turning to `CC1(C)CC(=O)c2c(C(F)(F)F)nn(-c3ccc(C(N)=O)c(N[C@H]4CC[C@H](O)CC4)c3)c2C1` [SNX-2112], the “loss of affinity for Grp94” value in assay [1] is “approximately 10 fold”.

Take `CC(C)c1cc(-c2n[nH]c(=O)n2-c2ccc3c(ccn3C)c2)c(O)cc1O` [STA-9090]: the IC50 in assay [3] stood at 0.01 µM.

As for `CC(C)NCCCn1c(Sc2ccc(Cl)cc2Cl)nc2c(N)ncnc21` [WS-12, 8-((2,4-Dichlorophenyl)thio)-9-(3-(isopropylamino)propyl)-9H-purin-6-amine], the IC50 in assay [4] was 0.41 µM and 0.407 µM; in assay [8] it was 20.3 ± 1.2 µM.

For the compound `CC(C)NCCCn1c(Sc2cc(Cl)cc(Cl)c2)nc2c(N)ncnc21` [WS-13, 8-((3,5-Dichlorophenyl)thio)-9-(3-(isopropylamino)propyl)-9H-purin-6-amine], the IC50 in assay [4] was 0.22 ± 0.08 µM; in assay [5] (read-out: Hsp90β, FP competition, 6 nM Cy3B-GM, 10 nM protein, 4° C. for 24 h), 41.8 ± 1.3 µM; in assay [8], 27.3 ± 3.5 µM.

On to `CS(=O)(=O)CCNCc1ccc(-c2ccc3ncnc(Nc4ccc(OCc5cccc(F)c5)c(Cl)c4)c3c2)o1` [lapatinib], for which the “effect on HER2 architecture at the plasma membrane” value in assay [9] was “does not disrupt the HER^2 architecture at the plasma membrane; also recorded: No such effect was observed”.
